Our source for the inhibition values is patent US20080181866A1, “Amido Anti-viral Compounds” (Genelabs Technologies, Inc., priority 2006, published 2008).

In this assay the test system is HCV replication. Put plainly: HCV replicon assay (luciferase) in ET (Huh-lucubineo-ET) cell line. It counts as cell-based. Conditions: Hepatitis C virus, tested at 5 μM; ET replicon cells; luciferase activity measured 48-72 hours later; relative to no compound control. The procedure: A cell line, ET (Huh-lucubineo-ET) was used for screening of compounds of the present invention for inhibiting HCV replication. The ET cell line was stably transfected with RNA transcripts harboring a I389luc-ubi-neo/NS3-3′/ET; replicon with firefly luciferase-ubiquitin-neomycin phosphotransferase fusion protein and EMCV-IRES driven NS3-5B polyprotein containing the cell culture adaptive mutations (E1202G; T12801; K1846T) (Krieger at al, 2001 and unpublished). The ET cells were grown in DMEM (Dulbeco's Modified Eagle's Medium), supplemented with 10% fetal calf serum, 2 mM Glutamine, Penicillin (100 IU/mL)/Streptomycin (100 μg/mL), 1× nonessential amino acids, and 250 μg/mL G418 (“Geneticin”). They were all available through Life Technologies (Bethesda, Md.). The cells were plated at 0.5-1.0×10^4 cells/well in the 96 well plates and incubated for 24 hrs before adding testing compounds. Then the compounds were added to the cells to achieve a final concentration of 0.1 nM to 50 μM and a final DMSO concentration of 0.5%. Luciferase activity were measured 48-72 hours later by adding a lysis buffer and the substrate (Catalog number Glo-lysis buffer E2661 and Bright-Glo luciferase system E2620 Promega, Madison, Wis.). Cells should not be too confluent during the assay. Percent inhibition of replication was plotted relative to no compound control. Under the same condition, cytotoxicity of the compounds was determined using cell proliferation reagent, WST-1 (Roche, Germany). The compounds showing antiviral activities, but no significant cytotoxicities were chosen to determine EC50 and TC50. For these determinations, a 10 point 2-fold serial dilution for each compound was used, which spans a concentration range of 1000 fold. EC50 and similarly TC50 values were calculated by fitting % inhibition at each concentration to the following equation:
% inhibition=100%/[(IC50/[I])^b+1]
where b is Hill's coefficient.
In some preferred embodiments compounds of Formula I will have a % inhibition of at least 20% when tested at 5 μM. In other embodiments the compounds of Formula I will have a % inhibition of at least 50% when tested at 5 μM.
On the technique in general: Replicon systems follow genome replication, usually without infectious particles.
`O=C(NC1CC1)c1ccc(-c2csc(NC(=O)[C@@H]3CSC(C4CCOCC4)N3C(=O)CC3CC3)n2)cc1` (some centres unmarked) [Compound 7104, 3-(2-Cyclopropyl-acetyl)-2-(tetrahydropyran-4-yl)-thiazolidine-4-carboxylic acid [4-(4-cyclopropylcarbamoyl-phenyl)-thiazol-2-yl]-amide]: the inhibition at 5 µM was 100%.
Molecule `CC(C)(C)OC(=O)N1C[C@@H](c2ccccc2)C[C@H]1C(=O)Nc1nc(-c2ccc(C(=O)NC3CC3)cc2)cs1` [Compound 7027, (2S,4R)-2-[4-(4-Cyclopropylcarbamoyl-phenyl)-thiazol-2-ylcarbamoyl]-4-phenyl-pyrrolidine-1-carboxylic acid tert-butyl ester] showed an inhibition at 5 µM of 6.9%.
`O=C(NC1CC1)c1ccc(-c2csc(NC(=O)[C@@H]3C[C@@H]4CCCC[C@@H]4N3C(=O)OCc3ccccc3)n2)cc1` [Compound 7043, (2S,3aS,7aS)-2-[4-(4-Cyclopropylcarbamoyl-phenyl)-thiazol-2-ylcarbamoyl]-octahydro-indole-1-carboxylic acid benzyl ester]: 5 µM produced 100% inhibition.
Regarding `O=C(NC1CC1)c1ccc(-c2csc(NC(=O)[C@@H]3COC(c4ccncc4)N3C(=O)OCc3ccccc3)n2)cc1` (stereo partly drawn) [Compound 7011, (S)-4-[4-(4-Cyclopropylcarbamoyl-phenyl)-thiazol-2-ylcarbamoyl]-2-pyridin-4-yl-oxazolidine-3-carboxylic acid benzyl ester], the inhibition at 5 µM worked out at 98.8%.
Under `O=C(NCCN1CCOCC1)c1ccc(-c2csc(NC(=O)[C@@H]3CSC4(CCOCC4)N3C(=O)OCc3ccccc3)n2)cc1` [Compound 7138, 3-{4-[4-(2-Morpholin-4-yl-ethylcarbamoyl)-phenyl]-thiazol-2-ylcarbamoyl}-8-oxa-1-thia-4-aza-spiro[4.5]decane-4-carboxylic acid benzyl ester] stands 100%; under `O=C(NC1CC1)c1ccc(-c2csc(NC(=O)[C@@H]3CSC(c4cncnc4)N3C(=O)OCc3ccccc3)n2)cc1` (mixture of isomers) [Compound 7022, (R)-4-[4-(4-Cyclopropylcarbamoyl-phenyl)-thiazol-2-ylcarbamoyl]-2-pyrimidin-5-yl-thiazolidine-3-carboxylic acid benzyl ester], 100%.
`CN(C)C(=O)CCC1SC[C@@H](C(=O)Nc2nc(-c3ccc(C(=O)NC4CC4)cc3)cs2)N1C(=O)OCc1ccccc1` (some centres unmarked) [Compound 7118, 4-[4-(4-Cyclopropylcarbamoyl-phenyl)-thiazol-2-ylcarbamoyl]-2-(2-dimethylcarbamoyl-ethyl)-thiazolidine-3-carboxylic acid benzyl ester]: the inhibition at 5 µM was found to be 99.9%.
Turning to `O=C(Cc1cccc(NC(=O)[C@@H]2CSC(c3ccncc3)N2C(=O)OCc2ccccc2)c1)NCc1ccccc1` (some centres unmarked) [Compound 7116, 4-[3-(Benzylcarbamoyl-methyl)-phenylcarbamoyl]-2-pyridin-4-yl-thiazolidine-3-carboxylic acid benzyl ester], the inhibition at 5 µM was 84.9%.
Take `O=C(NC1CC1)c1ccc(NC(=O)[C@@H]2CSC(C3CCOCC3)N2C(=O)OCc2ccccc2)cc1` (some centres unmarked) [Compound 7107, 4-(4-Cyclopropylcarbamoyl-phenylcarbamoyl)-2-(tetrahydro-pyran-4-yl)-thiazolidine-3-carboxylic acid benzyl ester]: the inhibition at 5 µM amounted to 10%.
Molecule `COc1ccc(C2SC[C@@H](C(=O)Nc3nc(-c4ccc(C(=O)NC5CC5)cc4)cs3)N2C(=O)OCc2ccccc2)cc1` (mixture of isomers) [Compound 7030, (R)-4-[4-(4-Cyclopropylcarbamoyl-phenyl)-thiazol-2-ylcarbamoyl]-2-(4-methoxy-phenyl)-thiazolidine-3-carboxylic acid benzyl ester] came in with an inhibition at 5 µM of 99.9%.
Under `COc1ccc(Cc2cnc(NC(=O)[C@@H]3CSC(c4ccncc4)N3C(=O)OCc3ccccc3)s2)cc1` (stereo in doubt) [Compound 7137, 4-[5-(4-Methoxy-benzyl)-thiazol-2-ylcarbamoyl]-2-pyridin-4-yl-thiazolidine-3-carboxylic acid benzyl ester] stands 17.1%; under `O=C(NC1CC1)c1ccc(-c2csc(NC(=O)[C@@H]3CSC4(CCCCC4)N3C(=O)OCc3ccccc3)n2)cc1` [Compound 7093, 3-[4-(4-Cyclopropylcarbamoyl-phenyl)-thiazol-2-ylcarbamoyl]-1-thia-4-aza-spiro[4.5]decane-4-carboxylic acid benzyl ester], 100%; under `CC(C)(C)OC(=O)NCc1ccc(NC(=O)[C@@H]2CSC(c3ccncc3)N2C(=O)OCc2ccccc2)cc1` (some centres unmarked) [Compound 7078, 4-[4-(tert-Butoxycarbonylamino-methyl)-phenylcarbamoyl]-2-pyridin-4-yl-thiazolidine-3-carboxylic acid benzyl ester], 35.6%.
For the molecule `COc1cccc(C2SC[C@@H](C(=O)Nc3nc(-c4ccc(C(=O)NC5CC5)cc4)cs3)N2C(=O)OCc2ccccc2)c1` (mixture of isomers) [Compound 7016, (R)-4-[4-(4-Cyclopropylcarbamoyl-phenyl)-thiazol-2-ylcarbamoyl]-2-(3-methoxy-phenyl)-thiazolidine-3-carboxylic acid benzyl ester], at 5 µM the inhibition was 98.5%.
The value for `O=C(Cc1ccc(NC(=O)[C@@H]2CSC(c3ccncc3)N2C(=O)OCc2ccccc2)cc1)Nc1ccccc1` (some centres unmarked) [Compound 7126, 4-(4-Phenylcarbamoylmethyl-phenylcarbamoyl)-2-pyridin-4-yl-thiazolidine-3-carboxylic acid benzyl ester] was 93.8%; that for `CCCC(C)C(=O)N1C(C2CCOCC2)SC[C@H]1C(=O)Nc1nc(-c2ccc(C(=O)NC3CC3)cc2)cs1` (stereo in doubt) [Compound 7103, 3-(2-Methyl-pentanoyl)-2-(tetrahydro-pyran-4-yl)-thiazolidine-4-carboxylic acid [4-(4-cyclopropylcarbamoyl-phenyl)-thiazol-2-yl]-amide] was 99.8%; that for `O=C(NC1CCCC1)c1ccc(-c2csc(NC(=O)[C@@H]3CSC(c4ccncc4)N3C(=O)OCc3ccccc3)n2)cc1` (some centres unmarked) [Compound 7012, 4-[4-(4-Cyclopentylcarbamoyl-phenyl)-thiazol-2-ylcarbamoyl]-2-pyridin-4-yl-thiazolidine-3-carboxylic acid benzyl ester] was 98.8%.
Take `COc1ccc(CNC(=O)Cc2cccc(NC(=O)[C@@H]3CSC(c4ccncc4)N3C(=O)OCc3ccccc3)c2)cc1` (some centres unmarked) [Compound 7128, 4-{3-[(4-Methoxy-benzylcarbamoyl)-methyl]-phenylcarbamoyl}-2-pyridin-4-yl-thiazolidine-3-carboxylic acid benzyl ester]: the inhibition at 5 µM was 97.5%.
As to `Cc1ccc2[nH]c(Cc3ccc(NC(=O)[C@@H]4CSC(c5ccncc5)N4C(=O)OCc4ccccc4)cc3)nc2c1` (some centres unmarked) [Compound 7117, 4-[4-(5-Methyl-1H-benzoimidazol-2-ylmethyl)-phenylcarbamoyl]-2-pyridin-4-yl-thiazolidine-3-carboxylic acid benzyl ester], the inhibition at 5 µM came to 42.4%.
`COc1ccccc1C1SC[C@@H](C(=O)Nc2nc(-c3ccc(C(=O)NC4CC4)cc3)cs2)N1C(=O)OCc1ccccc1` (mixture of isomers) [Compound 7047, (R)-4-[4-(4-Cyclopropylcarbamoyl-phenyl)-thiazol-2-ylcarbamoyl]-2-(2-methoxy-phenyl)-thiazolidine-3-carboxylic acid benzyl ester]: the inhibition at 5 µM came out at 99.6%.
Turning to `O=C(NC1CC1)c1ccc(-c2csc(NC(=O)[C@@H]3C[C@@H](Cc4ccccc4)CN3C(=O)OCc3ccccc3)n2)cc1` [Compound 7006, (2S,4R)-4-Benzyl-2-[4-(4-cyclopropylcarbamoyl-phenyl)-thiazol-2-ylcarbamoyl]-pyrrolidine-1-carboxylic acid benzyl ester], the inhibition at 5 µM came to 98.4%.
As to `CC(C)(C)OC(=O)N1C[C@H](c2ccccc2)C[C@H]1C(=O)Nc1nc(-c2ccc(C(=O)NC3CC3)cc2)cs1` [Compound 7038, (2S,4S)-2-[4-(4-Cyclopropylcarbamoyl-phenyl)-thiazol-2-ylcarbamoyl]-4-phenyl-pyrrolidine-1-carboxylic acid tert-butyl ester], the inhibition at 5 µM came to 48.4%.
In turn, `O=C(Cc1cccc(NC(=O)[C@@H]2CSC(c3ccncc3)N2C(=O)OCc2ccccc2)c1)NCc1ccc(Cl)cc1` (stereo in doubt) [Compound 7115, 4-{3-[(4-Chloro-benzylcarbamoyl)-methyl]-phenylcarbamoyl}-2-pyridin-4-yl-thiazolidine-3-carboxylic acid benzyl ester] showed an inhibition at 5 µM of 98%.

What is called inhibition is the share of the control response that was lost under treatment. Low readings indicate a weak effect, high ones a strong effect.
